From patent US20030022158A1, “Peptides from the TT virus sequence and monospecific antibodies binding to the TT virus” (priority 1999, published 2003)

How the values were obtained:
[1] = tested on: human antibodies in human serum samples; assay: EIA reactivities of three human serum samples with deletion and alanine substitution analogues of SEQ ID NO: 1 (Table 6); assay type: binding; settings: positive = more than 50% of the reactivity of the original peptide
Description: (§1) The EIAs used to identify which peptides interacted with human sera followed protocols known in the art. (See Zhang et al., J Gen Virol, 78:2735-2746 (1997), herein expressly incorporated by reference in its entirety). Briefly, microplates (Nunc, Denmark) were coated for 48 hours with synthetic peptides at a concentration of 10 μg/ml in 0.05M sodium carbonate buffer pH 9.6. After blocking for 2 hours at room temperature with phosphate buffered saline containing 1% bovine serum albumin, 2% goat serum and 0.05% Tween 20 (dilution buffer) the plates were incubated with human sera diluted 1:100 in dilution buffer. Bound human IgG was detected by incubation with anti-human IgG antibodies conjugated to alkaline phosphatase (Sigma Chemicals, St. Louis, Mo.). The plates were developed by the addition of […] (Sigma) and the optical densities were determined at 405 nm.
The reactivity to the TATTTTYAYPGTNRPPV (SEQ ID NO: 1) peptide was further characterized by mapping the reactivity of deletion and substitution peptide analogues.

[2] = tested on: human IgG antibodies in human serum samples; assay: EIA of human antibody reactivities to overlapping synthetic peptides of TTV ORF1 and ORF2 (Tables 2 and 3); assay type: binding; settings: for optical density (OD) at 405 nm: serum diluted 1:100, OD over 0.500 considered positive; for optical density (OD) at 405 nm, EIA reactivity of human serum sample 1: serum sample 1, negative for TTV DNA by PCR; for optical density (OD) at 405 nm, EIA reactivity of human serum sample 1 / optical density (OD) at 405 nm, EIA reactivity of human serum sample 2 / optical density (OD) at 405 nm, EIA reactivity of human serum sample 3 / optical density (OD) at 405 nm, EIA reactivity of human serum sample 4 / optical density (OD) at 405 nm, EIA reactivity of human serum sample 5 / optical density (OD) at 405 nm, EIA reactivity of human serum sample 6 / optical density (OD) at 405 nm, EIA reactivity of human serum sample 7 / optical density (OD) at 405 nm, EIA reactivity of human serum sample 9 / optical density (OD) at 405 nm, EIA reactivity of human serum sample 11 / optical density (OD) at 405 nm, EIA reactivity of human serum sample 18 / optical density (OD) at 405 nm, EIA reactivity of human serum sample 36 / optical density (OD) at 405 nm, EIA reactivity of human serum sample 48 / optical density (OD) at 405 nm, EIA reactivity of human serum sample 98 / optical density (OD) at 405 nm, EIA reactivity of human serum sample 110 / optical density (OD) at 405 nm, EIA reactivity of human serum sample 155 / optical density (OD) at 405 nm, EIA reactivity of human serum sample 157: serum 1:100, peptide coated 10 μg/ml, OD over 0.500 positive; for optical density (OD) at 405 nm, EIA reactivity of human serum sample 2: serum sample 2, negative for TTV DNA by PCR; for optical density (OD) at 405 nm, EIA reactivity of human serum sample 3: serum sample 3, negative for TTV DNA by PCR; for optical density (OD) at 405 nm, EIA reactivity of human serum sample 4: serum sample 4, negative for TTV DNA by PCR; for optical density (OD) at 405 nm, EIA reactivity of human serum sample 5: serum sample 5, negative for TTV DNA by PCR; for optical density (OD) at 405 nm, EIA reactivity of human serum sample 6: serum sample 6, negative for TTV DNA by PCR; for optical density (OD) at 405 nm, EIA reactivity of human serum sample 7: serum sample 7, negative for TTV DNA by PCR; for optical density (OD) at 405 nm, EIA reactivity of human serum sample 9: serum sample 9, positive for TTV DNA by PCR; for optical density (OD) at 405 nm, EIA reactivity of human serum sample 11: serum sample 11, negative for TTV DNA by PCR; for optical density (OD) at 405 nm, EIA reactivity of human serum sample 18: serum sample 18, positive for TTV DNA by PCR; for optical density (OD) at 405 nm, EIA reactivity of human serum sample 36: serum sample 36, positive for TTV DNA by PCR; for optical density (OD) at 405 nm, EIA reactivity of human serum sample 48: serum sample 48, positive for TTV DNA by PCR; for optical density (OD) at 405 nm, EIA reactivity of human serum sample 98: serum sample 98, positive for TTV DNA by PCR; for optical density (OD) at 405 nm, EIA reactivity of human serum sample 110: serum sample 110, positive for TTV DNA by PCR; for optical density (OD) at 405 nm, EIA reactivity of human serum sample 155: serum sample 155, positive for TTV DNA by PCR; for optical density (OD) at 405 nm, EIA reactivity of human serum sample 157: serum sample 157, positive for TTV DNA by PCR
Text: Overlapping peptides (18 amino acids in length containing an 8 amino acid overlap) corresponding to regions of the ORFI and ORF2 of TTV (TABLE 1; Genebank accession no AB008394) were produced by a multiple peptide synthesizer (Syro, Syntex, Germany) using standard Fmoc chemistry (Sallberg et al., Immunology Letters, 30:59 68 (1991), herein expressly incorporated by reference in its entirety).
as §1

[3] = human serum sample 1, negative for TTV DNA by PCR
[4] = human serum sample 2, negative for TTV DNA by PCR
[5] = human serum sample 3, negative for TTV DNA by PCR
[6] = human serum sample 4, negative for TTV DNA by PCR
[7] = human serum sample 5, negative for TTV DNA by PCR
[8] = human serum sample 6, negative for TTV DNA by PCR
[9] = human serum sample 7, negative for TTV DNA by PCR
[10] = human serum sample 9, positive for TTV DNA by PCR
[11] = human serum sample 11, negative for TTV DNA by PCR
[12] = human serum sample 18, positive for TTV DNA by PCR
[13] = human serum sample 36, positive for TTV DNA by PCR
[14] = human serum sample 48, positive for TTV DNA by PCR
[15] = human serum sample 98, positive for TTV DNA by PCR
[16] = human serum sample 110, positive for TTV DNA by PCR
[17] = human serum sample 155, positive for TTV DNA by PCR
[18] = human serum sample 157, positive for TTV DNA by PCR

20: overlapping synthetic peptide of TTV ORF1 (TATTTTYAYPGTNRPP) [compound 20]
OD at 405 nm, reactivity of human serum sample P4 [1]: 0.096 OD
OD at 405 nm, reactivity of human serum sample P7 [1]: 0.144 OD
OD at 405 nm, reactivity of human serum sample P36 [1]: 0.086 OD
optical density (OD) at 405 nm [2, 3]: 0.07 OD
optical density (OD) at 405 nm [2, 4]: 0.06 OD
optical density (OD) at 405 nm [2, 5]: 0.06 OD
optical density (OD) at 405 nm [2, 6]: 0.07 OD
optical density (OD) at 405 nm [2, 7]: 0.06 OD
optical density (OD) at 405 nm [2, 8]: 0.08 OD
optical density (OD) at 405 nm [2, 9]: 0.08 OD
optical density (OD) at 405 nm [2, 10]: 0.08 OD
optical density (OD) at 405 nm [2, 11]: 0.11 OD
optical density (OD) at 405 nm [2, 12]: 0.07 OD
optical density (OD) at 405 nm [2, 13]: 0.07 OD
optical density (OD) at 405 nm [2, 14]: 0.09 OD
optical density (OD) at 405 nm [2, 15]: 0.04 OD
optical density (OD) at 405 nm [2, 16]: 0.06 OD
optical density (OD) at 405 nm [2, 17]: 0.09 OD
optical density (OD) at 405 nm [2, 18]: 0.10 OD
optical density (OD) at 405 nm, EIA reactivity of human serum sample 1 [2]: 0.09 OD
optical density (OD) at 405 nm, EIA reactivity of human serum sample 2 [2]: 0.10 OD
optical density (OD) at 405 nm, EIA reactivity of human serum sample 3 [2]: 0.09 OD
optical density (OD) at 405 nm, EIA reactivity of human serum sample 4 [2]: 0.08 OD
optical density (OD) at 405 nm, EIA reactivity of human serum sample 5 [2]: 0.07 OD
optical density (OD) at 405 nm, EIA reactivity of human serum sample 6 [2]: 0.10 OD
optical density (OD) at 405 nm, EIA reactivity of human serum sample 7 [2]: 0.07 OD
optical density (OD) at 405 nm, EIA reactivity of human serum sample 9 [2]: 0.10 OD
optical density (OD) at 405 nm, EIA reactivity of human serum sample 11 [2]: 0.09 OD
optical density (OD) at 405 nm, EIA reactivity of human serum sample 18 [2]: 0.10 OD
optical density (OD) at 405 nm, EIA reactivity of human serum sample 36 [2]: 0.08 OD
optical density (OD) at 405 nm, EIA reactivity of human serum sample 48 [2]: 0.08 OD
optical density (OD) at 405 nm, EIA reactivity of human serum sample 98 [2]: 0.08 OD
optical density (OD) at 405 nm, EIA reactivity of human serum sample 110 [2]: 0.10 OD
optical density (OD) at 405 nm, EIA reactivity of human serum sample 155 [2]: 0.14 OD
optical density (OD) at 405 nm, EIA reactivity of human serum sample 157 [2]: 0.16 OD

2: overlapping synthetic peptide of TTV ORF1 (YAYPGTNRPPV) [compound 2]
OD at 405 nm, reactivity of human serum sample P4 [1]: 0.647 OD
OD at 405 nm, reactivity of human serum sample P7 [1]: 1.546 OD
OD at 405 nm, reactivity of human serum sample P36 [1]: 0.677 OD
optical density (OD) at 405 nm [2, 3]: 0.08 OD
optical density (OD) at 405 nm [2, 4]: 0.08 OD
optical density (OD) at 405 nm [2, 5]: 0.07 OD
optical density (OD) at 405 nm [2, 6]: 0.11 OD
optical density (OD) at 405 nm [2, 7]: 0.07 OD
optical density (OD) at 405 nm [2, 8]: 0.09 OD
optical density (OD) at 405 nm [2, 9]: 0.08 OD
optical density (OD) at 405 nm [2, 10]: 0.07 OD
optical density (OD) at 405 nm [2, 11]: 0.14 OD
optical density (OD) at 405 nm [2, 12]: 0.06 OD
optical density (OD) at 405 nm [2, 13]: 0.08 OD
optical density (OD) at 405 nm [2, 14]: 0.10 OD
optical density (OD) at 405 nm [2, 15]: 0.05 OD
optical density (OD) at 405 nm [2, 16]: 0.08 OD
optical density (OD) at 405 nm [2, 17]: 0.07 OD
optical density (OD) at 405 nm [2, 18]: 0.08 OD
optical density (OD) at 405 nm, EIA reactivity of human serum sample 1 [2]: 0.10 OD
optical density (OD) at 405 nm, EIA reactivity of human serum sample 2 [2]: 0.11 OD
optical density (OD) at 405 nm, EIA reactivity of human serum sample 3 [2]: 0.11 OD
optical density (OD) at 405 nm, EIA reactivity of human serum sample 4 [2]: 0.10 OD
optical density (OD) at 405 nm, EIA reactivity of human serum sample 5 [2]: 0.08 OD
optical density (OD) at 405 nm, EIA reactivity of human serum sample 6 [2]: 0.12 OD
optical density (OD) at 405 nm, EIA reactivity of human serum sample 7 [2]: 0.09 OD
optical density (OD) at 405 nm, EIA reactivity of human serum sample 9 [2]: 0.08 OD
optical density (OD) at 405 nm, EIA reactivity of human serum sample 11 [2]: 0.14 OD
optical density (OD) at 405 nm, EIA reactivity of human serum sample 18 [2]: 0.08 OD
optical density (OD) at 405 nm, EIA reactivity of human serum sample 36 [2]: 0.08 OD
optical density (OD) at 405 nm, EIA reactivity of human serum sample 48 [2]: 0.08 OD
optical density (OD) at 405 nm, EIA reactivity of human serum sample 98 [2]: 0.08 OD
optical density (OD) at 405 nm, EIA reactivity of human serum sample 110 [2]: 0.09 OD
optical density (OD) at 405 nm, EIA reactivity of human serum sample 155 [2]: 0.14 OD
optical density (OD) at 405 nm, EIA reactivity of human serum sample 157 [2]: 0.13 OD

21: overlapping synthetic peptide of TTV ORF1 (TATTTTYAYPGTNRP) [compound 21]
OD at 405 nm, reactivity of human serum sample P4 [1]: 0.100 OD
OD at 405 nm, reactivity of human serum sample P7 [1]: 0.099 OD
OD at 405 nm, reactivity of human serum sample P36 [1]: 0.078 OD
optical density (OD) at 405 nm [2, 3]: 0.00 OD
optical density (OD) at 405 nm [2, 4]: 0.00 OD
optical density (OD) at 405 nm [2, 5]: 0.00 OD
optical density (OD) at 405 nm [2, 6]: 0.00 OD
optical density (OD) at 405 nm [2, 7]: 0.00 OD
optical density (OD) at 405 nm [2, 8]: 0.00 OD
optical density (OD) at 405 nm [2, 9]: 0.00 OD
optical density (OD) at 405 nm [2, 10]: 0.00 OD
optical density (OD) at 405 nm [2, 11]: 0.00 OD
optical density (OD) at 405 nm [2, 12]: 0.00 OD
optical density (OD) at 405 nm [2, 13]: 0.00 OD
optical density (OD) at 405 nm [2, 14]: 0.00 OD
optical density (OD) at 405 nm [2, 15]: 0.00 OD
optical density (OD) at 405 nm [2, 16]: 0.00 OD
optical density (OD) at 405 nm [2, 17]: 0.00 OD
optical density (OD) at 405 nm [2, 18]: 0.00 OD
